# Measurements taken from PubChem BioAssay AID1224920 (Broad Institute, 2016).
# “And” between values parts separate entries of the source, which are not always exact repeats. Equal values may be shown once. The source made the active and inactive calls.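 How the source made its calls: active means IC50 no higher than ten times the top tested dose; inconclusive means flat fit with 30 to 70% inhibition, or poor fit; inactive means IC50 above ten times the top dose.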
# Experiments:
# [1] = growth modulation of Clostridium difficile isolate – OD600, 9-point, retest, dose response (AID 1224920); details: Clostridium difficile clinical isolate growth, OD600, 24 h;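 further: inhibitors lower culture turbidity so OD600 falls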;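 on activity change, negative = inhibition: plate controls were DMSO for no effect and levofloxacin control for full effect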
# [2] = tested on: Clostridium difficile clinical isolate growth, OD600, 24 h; assay: as above
smiles,measurement,setting,value
CN(C)C(=O)C[C@H]1C=C[C@H](NC(=O)C2CCOCC2)[C@H](CO)O1,"activity change, negative = inhibition",[1]; at 120 µM (top of the series),-14.4% (inactive)
CC(=O)N(C)C[C@H]1[C@H](c2ccc(-c3ccccc3F)cc2)[C@@H](CO)N1C(C)=O,"activity change, negative = inhibition",[1]; at 120 µM (top of the series),-11.8% (inactive)
C/C=C/c1ccc([C@H]2[C@@H](CO)N(C(=O)CC)[C@H]2CNC(=O)CC)cc1,"activity change, negative = inhibition",[1]; at 135 µM (top of the series),-4.24% (inactive)
N#C[C@@H]1[C@@H](c2ccccc2-c2ccc(F)cc2)[C@H](CO)N1C(=O)NC1CCCC1,"activity change, negative = inhibition",[1]; at 135 µM (top of the series),14% (inactive)
C/C=C/c1ccc([C@@H]2[C@@H](CO)N(Cc3ccccn3)[C@H]2CNC(C)=O)cc1,"activity change, negative = inhibition",[1]; at 120 µM (top of the series),-14.5% (inactive)
COc1ccc2c3c(n(C)c2c1)[C@H](CO)N(C(=O)c1ccncc1)CC31CN(C)C1,"activity change, negative = inhibition",[1]; at 120 µM (top of the series),3.29% (inactive)
O=C(C[C@@H]1CC[C@@H]2[C@H](COC[C@@H](O)CN2S(=O)(=O)c2ccccc2)O1)NCc1ccc(-c2ccccc2)cc1,"activity change, negative = inhibition",[1]; at 120 µM (top of the series),43.8% (inactive)
COc1ccc2c3c(n(C)c2c1)[C@H](CO)N(C(=O)Nc1ccc(F)cc1)CC31CCN(C(=O)CN2CCOCC2)CC1,"activity change, negative = inhibition",[1]; at 135 µM (top of the series),-1.31% (inactive)
COc1ccc(-c2ccccc2[C@@H]2[C@@H](C#N)N(C(=O)NC3CCCC3)[C@H]2CO)cc1,"activity change, negative = inhibition",[1]; at 68 µM (top of the series),-5% (inactive)
O=C(Nc1ccc(F)cc1)N1[C@@H]2CNC[C@H]1C2c1ccc(-c2ccc(F)cc2)cc1 (some centres not stated),"activity change, negative = inhibition",[1]; at 60 µM (top of the series),14.2% (inactive)
CN1c2ccc(-c3cccc(F)c3)cc2[C@H]2[C@H](CCN2C(=O)C2CCCC2)[C@H]1CO,"activity change, negative = inhibition",[1]; at 120 µM (top of the series),40.6% (inactive)
CC(=O)N1[C@H](CO)[C@@H](c2ccccc2)[C@@H]1CN(C)C(=O)CN1CCOCC1,"activity change, negative = inhibition",[1]; at 120 µM (top of the series),-9.56% (inactive)
O=C(Cc1ccccc1)N1CC[C@H]2[C@H](CO)Nc3ccc(C4=CCCCC4)cc3[C@H]21,"activity change, negative = inhibition",[1]; at 135 µM (top of the series),25.9% (inactive)
O=C(Nc1ccc(F)cc1)N1CCCCN2[C@H](CO)[C@@H](c3ccc(-c4cccc(F)c4)cc3)[C@@H]2C1,"activity change, negative = inhibition",[1]; at 120 µM (top of the series),48.5% (inactive)
Cc1ccc(-c2ccc([C@@H]3[C@@H](CO)N4CCCCN(C(=O)Nc5cccc(F)c5)C[C@@H]34)cc2)cc1,"activity change, negative = inhibition",[1]; at 135 µM (top of the series),15.8% (inactive)
COc1ccc(NC(=O)N2CCCCN3[C@@H](CO)[C@@H](c4ccc(-c5ccccc5C)cc4)[C@@H]3C2)cc1,"activity change, negative = inhibition",[1]; at 30 µM (top of the series),48% (inactive)
C/C=C/c1ccc([C@@H]2[C@@H](CO)N(C(=O)CC)[C@@H]2CNC(=O)CC)cc1,"activity change, negative = inhibition",[1]; at 120 µM (top of the series),-6.09% (inactive)
CN1c2ccc(-c3cccc(F)c3)cc2[C@@H]2[C@@H](CCN2C(=O)Cc2ccccc2)[C@@H]1CO,"activity change, negative = inhibition",[1]; at 135 µM (top of the series),52.8% (inactive)
O=S(=O)(c1ccc(F)cc1)N1CCCCN2[C@H](CO)[C@H](c3ccc(-c4ccccc4)cc3)[C@H]2C1,"activity change, negative = inhibition",[1]; at 120 µM (top of the series),39.2% (inactive)
O=C(Nc1ccc(F)cc1)N1CCCCN2[C@H](CO)[C@@H](c3ccc(-c4ccccc4F)cc3)[C@@H]2C1,"activity change, negative = inhibition",[1]; at 60 µM (top of the series),53.6% (inactive)
COc1cccc(-c2ccc(C3[C@@H]4CN(C(=O)C5CCCCC5)C[C@H]3N4)cc2)c1 (some centres not stated),"activity change, negative = inhibition",[1]; at 60 µM (top of the series),34.7% (inactive)
CN1c2ccc(-c3cccc(F)c3)cc2[C@@H]2[C@@H](CCN2C(=O)C2CCCC2)[C@@H]1CO,"activity change, negative = inhibition",[1]; at 120 µM (top of the series),34.7% (inactive)
O=C(Nc1ccccc1)N1CCCCN2[C@H](CO)[C@H](c3ccc(-c4ccccc4F)cc3)[C@H]2C1,"activity change, negative = inhibition",[1]; at 30 µM (top of the series),38.6% (inactive)
C[C@H]1CN([C@@H](C)CO)C(=O)c2cccc(NC(=O)c3nc4ccccc4s3)c2O[C@H]1CN(C)S(=O)(=O)c1ccc(F)cc1,"activity change, negative = inhibition",[1]; at 60 µM (top of the series),0.765% (inactive)
O=C(C1CCCC1)N1C[C@@H]2N[C@H](C1)C2c1ccc(-c2ccccc2F)cc1 (some centres not stated),"activity change, negative = inhibition",[1]; at 60 µM (top of the series),51.8% (inactive)
CN1c2ccc(Br)cc2[C@H]2[C@H](CCN2C(=O)Nc2ccc(F)cc2)[C@@H]1CO,"activity change, negative = inhibition",[1]; at 120 µM (top of the series),55.4% (inactive)
CN1[C@@H]2c3ccc(/C=C/c4ccccc4)c(=O)n3C[C@H]1[C@H](CO)[C@H]2C(=O)NC1CCCC1,"activity change, negative = inhibition",[1]; at 120 µM (top of the series),4.99% (inactive)
CCc1nc(N2[C@H](C#N)[C@@H](c3ccccc3-c3ccccc3F)[C@@H]2CO)sc1C,"activity change, negative = inhibition",[1]; at 120 µM (top of the series),57.6% (inactive)
Cc1ccccc1-c1ccc(C2[C@@H]3CN(C(=O)C4CCCC4)C[C@H]2N3)cc1 (some centres not stated),"activity change, negative = inhibition",[1]; at 60 µM (top of the series),34.2% (inactive)
Cc1ccc(S(=O)(=O)Nc2cccc3c2O[C@@H](CN(C)S(=O)(=O)c2ccccc2)[C@H](C)CN([C@H](C)CO)C3=O)cc1,"activity change, negative = inhibition",[1]; at 120 µM (top of the series),-24.7% (inactive)
O=C(C[C@H]1CC[C@H]2[C@@H](COC[C@H](O)CN2C(=O)Nc2cc(Cl)cc(Cl)c2)O1)N1CCOCC1,IC50,[2],15 µM
CCCC#Cc1ccc([C@@H]2[C@H](CO)N3CCCCN(S(=O)(=O)c4ccccc4C)C[C@@H]23)cc1,IC50,[2],24 µM
Cc1cccc(-c2ccc(C3[C@@H]4CN(C(=O)Nc5ccc(F)cc5)C[C@H]3N4)cc2)c1 (some centres not stated),IC50,[2],12.2 µM
Cc1cccc(-c2ccc(C3[C@@H]4CN(Cc5cccc(F)c5)C[C@H]3N4)cc2)c1 (some centres not stated),IC50,[2],5.89 µM and 8.61 µM
O=C(Nc1ccccc1F)N1CCCCN2[C@H](CO)[C@@H](c3ccc(/C=C/c4ccccc4)cc3)[C@H]2C1,IC50,[2],21.7 µM
OC[C@H]1Nc2ccc(-c3ccc(F)cc3)cc2[C@H]2[C@@H]1CCN2Cc1ccc(F)cc1,IC50,[2],44.3 µM
O=C(c1ccc2c(c1)OCO2)N1C[C@@H]2N[C@H](C1)C2c1ccc(/C=C/c2ccccc2)cc1 (some centres not stated),IC50,[2],12.4 µM
